One assay relates to Nucleic Acid. Kind of assay: Inhibitory concentration against cell-free bacterial transcription / translation (T/T) assay. The assay is classed as functional.
For another assay, the target named is Ribosomal RNA A-site. Kind of assay: Dissociation constant against 16S rRNA A-site. It is filed as nucleic-acid assay.

Each structure is given as a SMILES string.

In the case of `NC[C@@H]1O[C@H](O[C@H]2[C@@H](O)[C@H](O[C@@H]3[C@@H](O)[C@H](N)C[C@H](N)[C@H]3O[C@H]3O[C@H](CO)[C@@H](O)[C@H](O)[C@H]3N)O[C@@H]2CO)[C@H](N)[C@@H](O)[C@@H]1O` [PAROMOMYCIN], in the assay with Nucleic Acid, 0.6 µM corresponded to half-maximal inhibition (IC50). The compound also had an equilibrium dissociation constant (Kd) at Ribosomal RNA A-site of 0.1 µM.

As to `COc1ccc(CO[C@H]2C(N)C[C@@H](N)[C@@H](O)C2O)cc1` (stereo not given in full), in the assay with Nucleic Acid, the IC50 was > 50 µM. The dissociation constant Kd at Ribosomal RNA A-site turned out to be 315 µM.

Regarding `NCCCNCCOC1[C@@H](OCSc2ccnc3cc(C(F)(F)F)ccc23)C(N)C[C@@H](N)[C@H]1O` (stereo not given in full), the IC50 in the assay with Nucleic Acid stood at 2.1 µM. The compound also had an equilibrium dissociation constant (Kd) at Ribosomal RNA A-site of 2 µM.

For `CN(C)CCCNC(=O)CO[C@H]1C(O)[C@@H](OCSc2ccnc3cc(C(F)(F)F)ccc23)C(N)C[C@H]1N` (stereo not given in full), in the assay with Nucleic Acid, the IC50 is > 50 µM. Besides, binding on Ribosomal RNA A-site was put at a Kd of 241 µM.

For the compound `NCCCNCCO[C@H]1C(O)[C@@H](OCSc2ccnc3cc(C(F)(F)F)ccc23)C(N)C[C@H]1N` (stereo not given in full), the IC50 in the assay on Nucleic Acid was found to be 15 µM. This compound gave an equilibrium dissociation constant (Kd) at Ribosomal RNA A-site of 1.5 µM.

With `COc1ccc(CO[C@H]2C(N)C[C@@H](N)[C@@H](OCCNCCCN)C2O)cc1` (stereo not given in full), the IC50 with Nucleic Acid was > 50 µM. At Ribosomal RNA A-site, the dissociation constant Kd was found to be 27 µM.

Take `CN(C)CCCNC(=O)COC1[C@@H](OCSc2ccnc3cc(C(F)(F)F)ccc23)C(N)C[C@@H](N)[C@H]1O` (stereo not given in full): in the assay on Nucleic Acid, the IC50 is > 50 µM. Besides, at Ribosomal RNA A-site, the affinity, expressed as Kd, was 88 µM.

Turning to `COc1ccc(CO[C@H]2C(N)C[C@@H](N)[C@@H](O)C2OCCNCCCN)cc1` (stereo not given in full), the half-maximal inhibitory concentration (IC50) in the assay on Nucleic Acid is > 50 µM. The compound further returned a dissociation constant Kd at Ribosomal RNA A-site of 10 µM.

In the case of `NC[C@H]1O[C@H](O[C@H]2[C@H](O)[C@@H](O)[C@H](N)C[C@@H]2N)[C@H](N)[C@@H](O)[C@@H]1O` [NEAMINE], the IC50 with Nucleic Acid is > 50 µM. For the same compound, on Ribosomal RNA A-site, binding was characterised by a dissociation constant (Kd) of 5 µM.

Consider `NC1C[C@@H](N)[C@@H](O)C(O)[C@H]1OCSc1ccnc2cc(C(F)(F)F)ccc12` (stereo not given in full), for which, in the assay on Nucleic Acid, the IC50 is > 50 µM. On Ribosomal RNA A-site, this compound gave a Kd of 35 µM.

What is called IC50 is the concentration that inhibits the measured activity by half. Read a low IC50 as higher potency. For orientation: Kd means the concentration at which binding is half-saturated. Lower therefore signals higher affinity.

The values above are taken from ChEMBL document CHEMBL1143486, “The synthesis and 16S A-site rRNA recognition of carbohydrate-free aminoglycosides” (Bioorg Med Chem Lett, 2005).
